Marks after values point to notes of the source that are not given here.
Legend:
[1] = test system: RIF-1 tumors; assay: RIF-1 implanted tumors, PcIV followed by multiple exposures to light; format: in vivo, C3H/HeN mice
Protocol: To overcome the regrowth, RIF-1 tumors were implanted in C3H/HeN mice, and the mice were treated with PcIV followed by multiple exposures to light. For multiple exposures to light to be successful, the tumor tissue must retain sufficient levels of the photosensitizer over the exposure period.

[2] = test system: L5178Y cells; assay: Induction of apoptosis (DNA ladder) in L5178Y cells after PDT; format: cell-based, Mouse; conditions: for C × F Ld90, Minimum Demonstrated Condition to Induce Apoptosis: product of concentration and fluence
[3] = test system: RIF-1 (radiation-induced fibrosarcoma) tumors; assay: PDT of RIF-1 implanted tumors; format: in vivo, C3H/HeN mice; design: key to Tumor Responses at 24 hours: complete: no evidence of any tumor mass in any animal; only the scar from the photodynamic therapy was evident.; near complete: evidence of any tumor mass in four or five animals; only some tumor mass in one or two animals.; substantial: a significant tumor shrinkage occurred in all animals. In some animals the tumor response was complete, yet in others the response was not complete.; moderate: some tumor shrinkage was evident in some animals. In animals with some tumor shrinkage, scar formation was evident.; slight: some tumor decrease occurred in one or two mice; conditions: for Tumor Responses at 24 hours / Doubling Time of Initial Tumor Volume after PDT: 1 mg/kg in corn oil, 675 nm; for Tumor Responses at 24 hours: 135 J/cm^2, light 24 h after dosing; for Doubling Time of Initial Tumor Volume after PDT: 135 J/cm^2, controls 4 days
[4] = test system: Chinese hamster V79-379 lung fibroblasts; assay: Uptake of phthalocyanines into V79 cells; conditions: for Uptake Into V79 Cells, 1 μM / Uptake Into V79 Cells, 4 μM: 18 hours; for n Moles/10^6 Cells/μM (composite uptake value): V79 cells, average of all data, asterisk: listed value is for 1 μM, average would be higher
Procedure, shortened: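 V79-379 cells were incubated with phthalocyanine for 18 h, typically at 1, 2 and/or 4 μM. Cells collected on filters were extracted into ethanol and absorbance read at the peak, usually 668 nm. Values are nmol per 10^6 cells, using ε 2.93×10^5.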

CN(C)CCC[Si](C)(C)O[Si]1(O)n2c3c4ccccc4c2N=C2N=C(N=c4c5ccccc5c(n41)=NC1=NC(=N3)c3ccccc31)c1ccccc12 (stereo not drawn) [Compound IV, HOSiPcOSi(CH3)2(CH2)3N(CH3)2]
% of Mice Surviving ([1]; 1 mg/kg in DPPC liposomes, 30 days, day of exposure 2): 100% | % of Mice Surviving ([1]; 1 mg/kg in DPPC liposomes, 30 days, days of exposure 2, 3, 4, 5, and 6): 0% | % of Mice Surviving ([1]; 1 mg/kg in DPPC liposomes, 30 days, days of exposure 2, 3, and 4): 0% | % of Mice Surviving ([1]; 1 mg/kg in DPPC liposomes, 30 days, days of exposure 2-6): 0% | % of Mice Surviving ([1]; 1 mg/kg in DPPC liposomes, 30 days, days of exposure 2 and 3): 100% | % of Mice Surviving ([1]; 1 mg/kg in DPPC liposomes, 30 days, days of exposure 2 and 7): 100% | % of Mice Surviving ([1]; 1 mg/kg in DPPC liposomes, 120 days, days of exposure 2, 3, 4, 5, and 6): 0% | % of Mice Surviving ([1]; 1 mg/kg in DPPC liposomes, 120 days, days of exposure 2, 3, and 4): 0% | % of Mice Surviving ([1]; 1 mg/kg in DPPC liposomes, 120 days, days of exposure 2-6): 0% | % of Mice Surviving ([1]; 1 mg/kg in corn oil, 15 days, day of exposure 2): 100% | % of Mice Surviving ([1]; 1 mg/kg in corn oil, 15 days, days of exposure 2, 3, 4, 5, and 6): 100% | % of Mice Surviving ([1]; 1 mg/kg in corn oil, 15 days, days of exposure 2, 3, and 4): 100% | % of Mice Surviving ([1]; 1 mg/kg in corn oil, 15 days, days of exposure 2-6): 100% | % of Mice Surviving ([1]; 1 mg/kg in corn oil, 15 days, days of exposure 2 and 3): 100% | % of Mice Surviving ([1]; 1 mg/kg in corn oil, 15 days, days of exposure 2 and 7): 100% | tumor regrowth at sacrifice ([1]; DPPC liposomes, three to five irradiations, 300 days after the light treatment): no evidence of tumor regrowth | tumor cure ([1]; entrapped in DPPC liposomes, mice irradiated three, four or five times at an interval of 24 hours): complete tumor cure | tumor regrowth ([1]; given in corn oil, all the multiple exposure protocols): regrowth of tumors was evident 15 days after photodynamic therapy | Fluence, Minimum Demonstrated Condition to Induce Apoptosis ([2]; 0.4 μM): 3.0 kJ/m^2 | C × F Ld90, Minimum Demonstrated Condition to Induce Apoptosis ([2]; 0.4 μM): 1.2 kJ/m^2 | Tumor Responses at 24 hours [3]: near complete | Doubling Time of Initial Tumor Volume after PDT [3]: 16 days | Histological examination of treated tumors ([3]; RIF-1 tumors after PDT): presence of apoptotic bodies in the tumor

CCN(CCC[Si](C)(C)O[Si]1(O[Si](C)(C)CCCN(CC)CCN(C)C)n2c3c4ccccc4c2N=C2N=C(N=c4c5ccccc5c(n41)=NC1=NC(=N3)c3ccccc31)c1ccccc12)CCN(C)C [Compound XVIII, SiPc[OSi(CH3)2(CH2)3N(CH2CH3)(CH2)2N(CH3)2]2]
Fluence, Minimum Demonstrated Condition to Induce Apoptosis ([2]; 0.5 μM): 10.0 kJ/m^2 | C × F Ld90, Minimum Demonstrated Condition to Induce Apoptosis ([2]; 0.5 μM): 5.0 kJ/m^2 | Fluence, Minimum Demonstrated Condition to Induce Apoptosis ([2]; 1.0 μM): 3.0 kJ/m^2 | C × F Ld90, Minimum Demonstrated Condition to Induce Apoptosis ([2]; 1.0 μM): 3.0 kJ/m^2 | Uptake Into V79 Cells, 1 μM [4]: 0.3 ± 0.1 n Moles/10^6 cells | Uptake Into V79 Cells, 4 μM [4]: 3.6 ± 0.6 n Moles/10^6 cells | n Moles/10^6 Cells/μM (composite uptake value) [4]: 0.3* n Moles/10^6 Cells/μM | Tumor Responses at 24 hours [3]: near complete | Doubling Time of Initial Tumor Volume after PDT [3]: 12 days

CN(C)CCC[Si](C)(C)O[Si]1(O[Si](C)(C)CCCN(C)C)n2c3c4ccccc4c2N=C2N=C(N=c4c5ccccc5c(n41)=NC1=NC(=N3)c3ccccc31)c1ccccc12 [Compound XII, SiPc[OSi(CH3)2(CH2)3N(CH3)2]2]
Fluence, Minimum Demonstrated Condition to Induce Apoptosis ([2]; 0.4 μM): 3.0 kJ/m^2 | C × F Ld90, Minimum Demonstrated Condition to Induce Apoptosis ([2]; 0.4 μM): 1.2 kJ/m^2 | Uptake Into V79 Cells, 1 μM [4]: 2.1 ± 1.2 n Moles/10^6 cells | Uptake Into V79 Cells, 4 μM [4]: 4.6 ± 1.5 n Moles/10^6 cells | n Moles/10^6 Cells/μM (composite uptake value) [4]: 1.6 n Moles/10^6 Cells/μM | Tumor Responses at 24 hours [3]: complete | Doubling Time of Initial Tumor Volume after PDT [3]: 20 days

— patent publication US8211883B2, “Topical delivery of phthalocyanines” (priority 2004, dated 2012)
